Results from patent publication US9988430B2, “Stable GLP-1 based GLP-1/glucagon receptor co-agonists” (Novo Nordisk A/S, priority 2014, dated 2018).
*1 amine or outer side, *2 acyl side, *3 side chain or, on linkers, in order; H or OH if unused. Where a SMILES comes first, the peptide text is derived from it. Side-chain parts run from the residue outwards. [ ]: non-standard residue; d: D form. The star is where a group is joined. C18 diacid = O=C(O)CCCCCCCCCCCCCCCCC(=O)*; γGlu = O=C(O)[C@H](CCC(=O)[*:2])N[*:1]; Desaminohistidyl = O=C(CCc1c[nH]cn1)*; Ac4c = NC1(C(=O)O)CCC1; AEEA = NCCOCCOCC(=O)O; Aib = CC(C)(N)C(=O)O

What was measured:
human GLP-1 receptor [1] = target: T1, human GLP-1 receptor (Homo sapiens, UniProt P43220); assay: Assay (II)(a): GLP-1 receptor binding, [125I]GLP-1 displacement, SPA on BHK membranes; settings: displacement of [125I]GLP-1, membranes with human GLP-1 receptor; read-out: IC50 GLP-1R
T1 construct: expressed in transfected cells; host or cells: membranes of BHK cells, parent line BHKTS13, clone FCW467-12A
In short: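 Membranes from BHK cells expressing human GLP-1 receptor with WGA SPA beads, [125I]GLP-1(7-36)NH2 (480 pM added solution) and compound in HEPES pH 7.4 buffer with EGTA, MgCl2, Tween 20. Incubated 2 h at 30° C; SPA counts fitted by non-linear regression to IC50 in nM.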

human GLP-1 receptor [2] = target: T1, human GLP-1 receptor; assay: Assay (I)(a): GLP-1 receptor potency, CRE luciferase reporter gene assay in BHK cells; format: cell-based; settings: BHK cells expressing human GLP-1 receptor, read-out: EC50 GLP-1R
Procedure: Assay (I): GLP-1 and Glucagon Receptor Potency The purpose of this example was to test the activity or potency, of the GLP-1 derivatives of the invention, in vitro. The in vitro potency is the measure of human GLP-1 receptor (GLP-1R) or glucagon receptor (glucagonR) activation, respectively, in a whole cell assay. In vitro potency was determined by measuring the cellular response of human GLP-1 or glucagon receptor activation, respectively, in a reporter gene assay. The assay was performed in a BHK cell line that stably expresses either the human GLP-1 receptor or the human glucagon receptor and comprises the DNA for the cAMP response element (CRE) coupled to a promoter and the gene for firefly luciferase (CRE luciferase). […] When assay incubation was completed, the luciferase substrate (luciferin) was added and the enzyme converted luciferin to oxyluciferin and produces bioluminescence. The luminescence was measured as the readout for the assay. (a) GLP-1 Receptor Activation The cells used in this assay (clone FCW467-12A/KZ10-1) were BHK cells with BHKTS13 as a parent cell line. The cells were derived from a clone (FCW467-12A) that expresses the human GLP-1 receptor and were established by further transfection with CRE luciferase to obtain the current clone. The cells were cultured at 5% CO2 in DMEM medium with 10% FBS, 1×GlutaMAX, 1 mg/ml G418, 240 nM MTX (methotrexate) and 1% pen/strep (penicillin/streptomycin). They were aliquoted and stored in liquid nitrogen. Before each assay, an aliquot was taken up and washed three times in PBS before being suspended at the desired concentration in assay medium. For 96-well plates the suspension was made to give a final concentration of 5×10EE3 cells/well. The following chemicals were used in the assay: Pluronic F-68 (10%) (Gibco 2404), Ovalbumin (Sigma A5503), DMEM w/o phenol red (Gibco 11880-028), 1 M Hepes (Gibco 15630), Glutamax 100× (Gibco 35050) and steadylite plus (PerkinElmer 6016757). Assay Medium consisted of DMEM w/o phenol red, 10 mM Hepes, 1×GlutaMAX, 2% Ovalbumin and 0.2% Pluronic F-68. Cell stocks were thawed in a 37° C. water bath. Cells were washed three times in PBS. The cells were counted and adjusted to 5×10EE3 cells/50 μl (1×10EE5 cells/ml) in Assay Medium. A 50 μl aliquot of cells was transferred to each well in the assay plate. Stocks of the test compounds and reference compounds were diluted to a concentration of […] in Assay Medium. Compounds were diluted 10-fold to give the following concentrations: 2×10EE-6 M, 2×10EE-7 M, 2×10EE-8 M; 2×10EE-9 M, 2×10EE-10 M, 2×10EE-11 M, 2×10EE-12 M and 2×10EE-13 M. For each compound a blank assay medium control was also included. A 50 μl aliquot of compound or blank was transferred from the dilution plate to the assay plate. Compounds were tested at the following final concentrations: 1×10EE-6 M, 1×10EE-7 M, 1×10EE-8 M; 1×10EE-9 M, 1×10EE-10 M, 1×10EE-11 M and 1×10EE-12 M and 1×10EE-13 M. The assay plate was incubated for 3 h in a 5% CO2 incubator at 37° C. The assay plate was removed from the incubator and allowed to stand at room temperature for 15 min. A 100 μl aliquot of steadylite plus reagent was added to each well of the assay plate (reagent is light sensitive). Each assay plate was covered with aluminum foil to protect it from light and shaken for 30 min at room temperature. Each assay plate was read in a Perkin Elmer TopCount NXT instrument. The data from the TopCount instrument was transferred to GraphPad Prism software. The software performed a non-linear regression (log(agonist) vs response-Variable slope (four parameter)). EC50 values were calculated by the software and reported in pM.

T1 sequence (P43220 24-463): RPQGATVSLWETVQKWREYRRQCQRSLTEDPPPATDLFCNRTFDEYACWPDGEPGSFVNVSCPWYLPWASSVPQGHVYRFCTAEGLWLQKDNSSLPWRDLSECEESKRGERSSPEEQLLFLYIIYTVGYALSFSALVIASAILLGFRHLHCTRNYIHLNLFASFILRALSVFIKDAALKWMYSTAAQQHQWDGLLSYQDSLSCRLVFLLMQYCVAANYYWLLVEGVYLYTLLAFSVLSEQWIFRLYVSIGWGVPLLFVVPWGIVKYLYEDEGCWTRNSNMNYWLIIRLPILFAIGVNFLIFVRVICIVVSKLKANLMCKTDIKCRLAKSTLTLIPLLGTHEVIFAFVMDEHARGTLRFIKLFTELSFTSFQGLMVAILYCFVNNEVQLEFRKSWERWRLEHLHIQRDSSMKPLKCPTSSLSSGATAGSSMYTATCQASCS

| IC50 (human GLP-1 receptor [1]) | EC50 (human GLP-1 receptor [2]) | Compound |
| --- | --- | --- |
| 2300 pM | 7 pM | CC[C@H](C)[C@H](NC(=O)[C@H](Cc1ccccc1)NC(=O)[C@H](CCC(=O)O)NC(=O)[C@H](CCCNC(=N)N)NC(=O)[C@H](C)NC(=O)[C@H](C)NC(=O)[C@H](CCC(N)=O)NC(=O)[C@H](CCCNC(=N)N)NC(=O)[C@H](CCC(=O)O)NC(=O)[C@H](CC(C)C)NC(=O)[C@H](Cc1ccc(O)cc1)NC(=O)[C@H](CCCCN)NC(=O)[C@H](CO)NC(=O)[C@H](Cc1ccc(O)cc1)NC(=O)[C@H](CC(=O)O)NC(=O)[C@H](CO)NC(=O)[C@@H](NC(=O)[C@H](Cc1ccccc1)NC(=O)[C@@H](NC(=O)CNC(=O)[C@H](Cc1c[nH]cn1)NC(=O)C1(NC(=O)CCc2c[nH]cn2)CCC1)[C@@H](C)O)[C@@H](C)O)C(=O)N[C@@H](C)C(=O)N[C@@H](Cc1c[nH]c2ccccc12)C(=O)N[C@@H](CC(C)C)C(=O)N[C@@H](CC(C)C)C(=O)N[C@@H](CCCCN)C(=O)N[C@@H](CCCCNC(=O)CC[C@H](NC(=O)COCCOCCNC(=O)CC[C@H](NC(=O)COCCOCCNC(=O)CC[C@H](NC(=O)COCCOCCNC(=O)CC[C@H](NC(=O)CC[C@H](NC(=O)CCCCCCCCCCCCCCCCC(=O)O)C(=O)O)C(=O)O)C(=O)O)C(=O)O)C(=O)O)C(N)=O [Example 23, N^ε35-[(4S)-4-carboxy-4-[[2-[2-[2-[[(4S)-4-carboxy-4-[[2-[2-[2-[[(4S)-4-carboxy-4-[[2-[2-[2-[[(4S)-4-carboxy-4-[[(4S)-4-carboxy-4-(17-carboxyheptadecanoylamino)butanoyl]amino]butanoyl]amino]ethoxy]ethoxy]acetyl]amino]butanoyl]amino]ethoxy]ethoxy]acetyl]amino]butanoyl]amino]ethoxy]ethoxy]acetyl]amino]butanoyl]-[Imp7,Acb8,His9,Tyr16,Lys18,Arg22,Arg26,Leu33,Lys35]-GLP-1-(7-35)-peptide amide] (Desaminohistidyl-[Ac4c]HGTFTSDYSKYLERQAAREFIAWLLKK([γGlu-AEEA-γGlu-AEEA-γGlu-AEEA-γGlu-γGlu-C18 diacid])-NH2) |
| – | 3 pM | CC[C@H](C)[C@H](NC(=O)[C@H](Cc1ccccc1)NC(=O)[C@H](CCC(=O)O)NC(=O)[C@H](CCCNC(=N)N)NC(=O)[C@H](C)NC(=O)[C@H](C)NC(=O)[C@H](CCC(N)=O)NC(=O)[C@H](C)NC(=O)[C@H](CCC(=O)O)NC(=O)[C@H](CC(C)C)NC(=O)[C@H](Cc1ccc(O)cc1)NC(=O)[C@H](CCCCN)NC(=O)[C@H](CO)NC(=O)[C@@H](NC(=O)[C@H](CC(=O)O)NC(=O)[C@H](CO)NC(=O)[C@@H](NC(=O)[C@H](Cc1ccccc1)NC(=O)[C@@H](NC(=O)CNC(=O)[C@H](Cc1c[nH]cn1)NC(=O)C(C)(C)NC(=O)CCc1c[nH]cn1)[C@@H](C)O)[C@@H](C)O)C(C)C)C(=O)N[C@@H](C)C(=O)N[C@@H](Cc1c[nH]c2ccccc12)C(=O)N[C@@H](CC(C)C)C(=O)N[C@@H](CC(C)C)C(=O)N[C@@H](CCCCNC(=O)CC[C@H](NC(=O)CC[C@H](NC(=O)COCCOCCNC(=O)CC[C@H](NC(=O)CC[C@H](NC(=O)CCCCCCCCCCCCCCCCC(=O)O)C(=O)O)C(=O)O)C(=O)O)C(=O)O)C(=O)N[C@H](C(N)=O)[C@@H](C)O [Example 34, N^ε34-[(4S)-4-carboxy-4-[[(4S)-4-carboxy-4-[[2-[2-[2-[[(4S)-4-carboxy-4-[[(4S)-4-carboxy-4-(17-carboxyheptadecanoylamino)butanoyl]amino]butanoyl]amino]ethoxy]ethoxy]acetyl]amino]butanoyl]amino]butanoyl]-[Imp7,Aib8,His9,Lys18,Ala22,Arg26,Leu33,Thr35]-GLP-1-(7-35)-peptide amide] (Desaminohistidyl-[Aib]HGTFTSDVSKYLEAQAAREFIAWLLK([γGlu-γGlu-AEEA-γGlu-γGlu-C18 diacid])T-NH2) |
| – | 6 pM | CC[C@H](C)[C@H](NC(=O)[C@H](Cc1ccccc1)NC(=O)[C@H](CCC(=O)O)NC(=O)[C@H](CCCNC(=N)N)NC(=O)[C@H](C)NC(=O)[C@H](C)NC(=O)[C@H](CCCNC(=N)N)NC(=O)CNC(=O)[C@H](CCC(=O)O)NC(=O)[C@H](CC(C)C)NC(=O)[C@H](Cc1ccc(O)cc1)NC(=O)[C@H](CCCNC(=N)N)NC(=O)[C@H](CO)NC(=O)[C@@H](NC(=O)[C@H](CC(=O)O)NC(=O)[C@H](CO)NC(=O)[C@@H](NC(=O)[C@H](Cc1ccccc1)NC(=O)[C@@H](NC(=O)CNC(=O)[C@H](Cc1c[nH]cn1)NC(=O)C(C)(C)NC(=O)CCc1c[nH]cn1)[C@@H](C)O)[C@@H](C)O)C(C)C)C(=O)N[C@@H](C)C(=O)N[C@@H](Cc1c[nH]c2ccccc12)C(=O)N[C@@H](CC(C)C)C(=O)N[C@@H](CC(C)C)C(=O)N[C@@H](CCCCNC(=O)CC[C@H](NC(=O)CC[C@H](NC(=O)COCCOCCNC(=O)CC[C@H](NC(=O)CC[C@H](NC(=O)CCCCCCCCCCCCCCCCC(=O)O)C(=O)O)C(=O)O)C(=O)O)C(=O)O)C(=O)NCC(=O)N[C@@H](CO)C(=O)NCC(=O)O [Example 36, N^ε34-[(4S)-4-carboxy-4-[[(4S)-4-carboxy-4-[[2-[2-[2-[[(4S)-4-carboxy-4-[[(4S)-4-carboxy-4-(17-carboxyheptadecanoylamino)butanoyl]amino]butanoyl]amino]ethoxy]ethoxy]acetyl]amino]butanoyl]amino]butanoyl]-[Imp7,Aib8,His9,Arg18,Arg23,Arg26,Leu33,Ser36]-GLP-1-(7-37)-peptide] (Desaminohistidyl-[Aib]HGTFTSDVSRYLEGRAAREFIAWLLK([γGlu-γGlu-AEEA-γGlu-γGlu-C18 diacid])GSG-OH) |
| – | 8 pM | CC[C@H](C)[C@H](NC(=O)[C@H](Cc1ccccc1)NC(=O)[C@H](CCCCNC(=O)COCCOCCNC(=O)COCCOCCNC(=O)CC[C@H](NC(=O)CC[C@H](NC(=O)CC[C@H](NC(=O)CCCCCCCCCCCCCCCCC(=O)O)C(=O)O)C(=O)O)C(=O)O)NC(=O)[C@H](CCCNC(=N)N)NC(=O)[C@H](C)NC(=O)[C@H](C)NC(=O)[C@H](CCC(N)=O)NC(=O)[C@H](CCC(=O)O)NC(=O)[C@H](CCC(=O)O)NC(=O)[C@H](CC(C)C)NC(=O)[C@H](Cc1ccc(O)cc1)NC(=O)[C@H](CCCNC(=N)N)NC(=O)[C@H](CO)NC(=O)[C@@H](NC(=O)[C@H](CC(=O)O)NC(=O)[C@H](CO)NC(=O)[C@@H](NC(=O)[C@H](Cc1ccccc1)NC(=O)[C@@H](NC(=O)CNC(=O)[C@H](Cc1c[nH]cn1)NC(=O)[C@H](C)NC(=O)CCc1c[nH]cn1)[C@@H](C)O)[C@@H](C)O)C(C)C)C(=O)N[C@@H](C)C(=O)N[C@@H](Cc1c[nH]c2ccccc12)C(=O)N[C@@H](CC(C)C)C(=O)N[C@@H](CC(C)C)C(=O)N[C@@H](CCCNC(=N)N)C(=O)O [Example 18, N^ε27-[2-[2-[2-[[2-[2-[2-[[(4S)-4-carboxy-4-[[(4S)-4-carboxy-4-[[(4S)-4-carboxy-4-(17-carboxyheptadecanoylamino)butanoyl]amino]butanoyl]amino]butanoyl]amino]ethoxy]ethoxy]acetyl]amino]ethoxy]ethoxy]acetyl]-[Imp7,His9,Arg18,Glu22,Arg26,Lys27,Leu33,Arg34]-GLP-1-(7-34)-peptide] (Desaminohistidyl-AHGTFTSDVSRYLEEQAARK([AEEA-AEEA-γGlu-γGlu-γGlu-C18 diacid])FIAWLLR-OH) |
